We go through six compounds from patent US9695155B2, “Herbicidal substituted pyrimidinyloxy benzene compounds” (E. I. DU PONT DE NEMOURS AND COMPANY, priority 2013, dated 2017).

The test system of test [1] is pigweed. Nature of the test: Test A postemergence. The format is in vivo, Amaranthus retroflexus. Conditions: 1000 g ai/ha, 0 to 100 scale, 0 no effect, 100 complete control. The method, boiled down: (§1)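 Scoring: eye-based comparison with untreated controls, 0 for no effect through 100 for complete control, at about day 10. Treatments: directed soil spray preemergence; foliar spray postemergence on 2–10 cm plants at the one- to two-leaf stage. Medium: loam soil with sand.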

Test [2] deals with giant foxtail. Nature of the test: Test A preemergence. The format is in vivo, Setaria faberii. Conditions: 1000 g ai/ha, 0 to 100 scale, 0 no effect, 100 complete control, approx. 10 days. The method, boiled down:
as §1

Test [3] concerns blackgrass. Nature of the test: Test A postemergence. Format: in vivo, Alopecurus myosuroides. To be noted: 1000 g ai/ha, 0 to 100 scale, 0 no effect, 100 complete control. The source says:
(§2) Seeds of plant species selected from barnyardgrass (Echinochloa crus-galli), kochia (Kochia scoparia), ragweed (common ragweed, Ambrosia elatior), Italian ryegrass (Lolium multiflorum), large (Lg) crabgrass (Digitaria sanguinalis), giant foxtail (Setaria faberii), morningglory (Ipomoea spp.), pigweed (Amaranthus retroflexus), velvetleaf (Abutilon theophrasti), wheat (Triticum aestivum), and corn (Zea mays) were planted into a blend of loam soil and sand and treated preemergence with a directed soil spray using test chemicals formulated in a non-phytotoxic solvent mixture which included a surfactant.
(§3) At the same time, plants selected from these crop and weed species and also blackgrass (Alopecurus myosuroides), and galium (catchweed bedstraw, Galium aparine) were planted in pots containing the same blend of loam soil and sand and treated with postemergence applications of test chemicals formulated in the same manner. Plants ranged in height from 2 to 10 cm and were in the one- to two-leaf stage for the postemergence treatment. Treated plants and untreated controls were maintained in a greenhouse for approximately 10 days, after which time all treated plants were compared to untreated controls and visually evaluated for injury. Plant response ratings, summarized in Table A, are based on a 0 to 100 scale where 0 is no effect and 100 is complete control. A dash (-) response means no test result.

Test [4] has as its system wheat. Nature of the test: Test A postemergence. Conditions: 1000 g ai/ha, 0 to 100 scale, 0 no effect, 100 complete control. Format: in vivo, Triticum aestivum. The method, boiled down: as §1
For test [5], the system named is galium. Nature of the test: Test A postemergence. Conditions: 1000 g ai/ha, 0 to 100 scale, 0 no effect, 100 complete control. Format: in vivo, Galium aparine.
Text: as §2, §3

The subject of test [6] is kochia. As to the kind of experiment: Test A postemergence. The format is in vivo, Kochia scoparia. Conditions: 1000 g ai/ha, 0 to 100 scale, 0 no effect, 100 complete control. The procedure, abridged: as §1
For test [7], the system named is Italian ryegrass. Nature of the test: Test A preemergence. The format is in vivo, Lolium multiflorum. Conditions: 1000 g ai/ha, 0 to 100 scale, 0 no effect, 100 complete control, approx. 10 days. The method, boiled down:
as §1

The subject of test [8] is barnyardgrass. Nature of the test: Test A postemergence. To be noted: 1000 g ai/ha, 0 to 100 scale, 0 no effect, 100 complete control. The format is in vivo, Echinochloa crus-galli. The procedure, abridged: as §1
Test [9] has as its system giant foxtail. Nature of the test: Test A postemergence. Format: in vivo, Setaria faberii. To be noted: 1000 g ai/ha, 0 to 100 scale, 0 no effect, 100 complete control. The procedure, abridged: as §1
For test [10], the system named is ragweed. As to the kind of experiment: Test A preemergence. The format is in vivo, Ambrosia elatior. Conditions: 1000 g ai/ha, 0 to 100 scale, 0 no effect, 100 complete control, approx. 10 days. The procedure, abridged:
as §1

Test [11] concerns barnyardgrass. Nature of the test: Test A preemergence. To be noted: 1000 g ai/ha, 0 to 100 scale, 0 no effect, 100 complete control, approx. 10 days. The format is in vivo, Echinochloa crus-galli. The procedure, abridged: as §1
For test [12], the system named is ragweed. Nature of the test: Test A postemergence. To be noted: 1000 g ai/ha, 0 to 100 scale, 0 no effect, 100 complete control. Format: in vivo, Ambrosia elatior. The method, boiled down: as §1
For test [13], the system named is kochia. As to the kind of experiment: Test A preemergence. Conditions: 1000 g ai/ha, 0 to 100 scale, 0 no effect, 100 complete control, approx. 10 days. Format: in vivo, Kochia scoparia.
Text: as §2, §3

The subject of test [14] is pigweed. As to the kind of experiment: Test A preemergence. Conditions: 1000 g ai/ha, 0 to 100 scale, 0 no effect, 100 complete control, approx. 10 days. Format: in vivo, Amaranthus retroflexus. The method, boiled down: as §1
The test system of test [15] is corn. Nature of the test: Test A postemergence. Conditions: 1000 g ai/ha, 0 to 100 scale, 0 no effect, 100 complete control. The format is in vivo, Zea mays. The method, boiled down: as §1
The subject of test [16] is Italian ryegrass. As to the kind of experiment: Test A postemergence. The format is in vivo, Lolium multiflorum. To be noted: 1000 g ai/ha, 0 to 100 scale, 0 no effect, 100 complete control.
Text: as §2, §3

With `CNC(=O)c1cccc(Oc2ncc(Cl)cn2)c1-n1cc(C(F)(F)F)cn1` [Compound 256], the “Plant response rating, Pigweed” value in [1] was 10. In addition, in [2], the “Foxtail, Giant plant response rating” value amounted to 30. Also, the “Plant response rating, Blackgrass” value in [3] is recorded as 10. The “Plant response rating, Wheat” value in test [4] came out at 0. The “Plant response rating, Galium” value in [5] was 30. The “Plant response rating, Kochia” value in [6] came to 30. In [7], the “Ryegrass, Italian plant response rating” value is listed as 20. In addition, the “Plant response rating, Barnyardgrass” value in test [8] is reported as 10. Also, the “Plant response rating, Foxtail, Giant” value in test [9] was 10. For the same compound, in [10], the “Ragweed plant response rating” value is given as 30. In addition, the “Barnyardgrass plant response rating” value in test [11] stood at 20. Besides, the “Plant response rating, Ragweed” value in test [12] came to 10. For the same compound, the “Kochia plant response rating” value in test [13] was 70. Besides, the “Pigweed plant response rating” value in test [14] is reported as 30. In addition, the “Plant response rating, Corn” value in test [15] was determined as 0. The “Plant response rating, Ryegrass, Italian” value in [16] amounted to 0.

With `CCN(C)C(=O)c1cccc(Oc2ncc(Cl)cn2)c1-n1cc(C(F)(F)F)cn1` [Compound 262], in test [1], the “Plant response rating, Pigweed” value is 50. Besides, the “Foxtail, Giant plant response rating” value in test [2] stood at 50. In addition, in [3], the “Plant response rating, Blackgrass” value came out at 10. Further, the “Plant response rating, Wheat” value in test [4] is listed as 0. Further, the “Plant response rating, Galium” value in [5] came to 10. The “Plant response rating, Kochia” value in test [6] was determined as 30. The “Ryegrass, Italian plant response rating” value in [7] is 0. In addition, the “Plant response rating, Barnyardgrass” value in test [8] was found to be 10. Also, in [9], the “Plant response rating, Foxtail, Giant” value is 10. Moreover, the “Ragweed plant response rating” value in test [10] is 0. The “Barnyardgrass plant response rating” value in test [11] worked out at 0. In addition, the “Plant response rating, Ragweed” value in test [12] was found to be 10. Moreover, the “Kochia plant response rating” value in test [13] came out at 20. The “Pigweed plant response rating” value in test [14] amounted to 10. Further, the “Plant response rating, Corn” value in test [15] is listed as 0. Besides, the “Plant response rating, Ryegrass, Italian” value in test [16] is 0.

In the case of `NC(=O)c1cnn(-c2ccccc2Oc2ncc(Cl)cn2)c1` [Compound 281], the “Plant response rating, Pigweed” value in test [1] is 70. In test [2], the “Foxtail, Giant plant response rating” value stood at 0. The “Plant response rating, Blackgrass” value in test [3] turned out to be 0. Besides, the “Plant response rating, Wheat” value in test [4] turned out to be 0. Further, the “Plant response rating, Galium” value in test [5] worked out at 60. Further, the “Plant response rating, Kochia” value in test [6] was found to be 70. For the same compound, the “Ryegrass, Italian plant response rating” value in test [7] was found to be 10. In addition, the “Plant response rating, Barnyardgrass” value in [8] was 0. For the same compound, the “Plant response rating, Foxtail, Giant” value in test [9] turned out to be 0. In addition, the “Ragweed plant response rating” value in test [10] worked out at 30. For the same compound, the “Barnyardgrass plant response rating” value in test [11] came out at 0. The “Plant response rating, Ragweed” value in test [12] was 70. Also, the “Kochia plant response rating” value in test [13] is on record as 0. Besides, the “Pigweed plant response rating” value in [14] was determined as 60. Moreover, the “Plant response rating, Corn” value in test [15] came out at 10. The “Plant response rating, Ryegrass, Italian” value in test [16] was 0.

As for `CC(C)(C)NS(=O)(=O)c1cnn(-c2ccccc2Oc2ncc(Cl)cn2)c1` [Compound 283], the “Plant response rating, Pigweed” value in test [1] stood at 20. Besides, the “Foxtail, Giant plant response rating” value in [2] was found to be 0. Further, the “Plant response rating, Blackgrass” value in test [3] is on record as 10. In [4], the “Plant response rating, Wheat” value is 0. Moreover, in test [5], the “Plant response rating, Galium” value is reported as 30. In test [6], the “Plant response rating, Kochia” value turned out to be 10. For the same compound, in test [7], the “Ryegrass, Italian plant response rating” value was determined as 0. The “Plant response rating, Barnyardgrass” value in test [8] is given as 0. Further, the “Plant response rating, Foxtail, Giant” value in test [9] turned out to be 0. In [10], the “Ragweed plant response rating” value stood at 0. Moreover, the “Barnyardgrass plant response rating” value in test [11] came out at 0. Besides, the “Plant response rating, Ragweed” value in [12] stood at 20. Also, the “Kochia plant response rating” value in test [13] amounted to 0. Moreover, the “Pigweed plant response rating” value in test [14] is on record as 0. The “Plant response rating, Corn” value in [15] came out at 0. Moreover, in [16], the “Plant response rating, Ryegrass, Italian” value amounted to 0.

In the case of `C[Si](C)(C)c1cn(-c2c(Br)cccc2Oc2ncc(Cl)cn2)nn1` [Compound 300], in test [1], the “Plant response rating, Pigweed” value is 60. In test [2], the “Foxtail, Giant plant response rating” value is on record as 80. Also, the “Plant response rating, Blackgrass” value in test [3] was 0. The “Plant response rating, Wheat” value in test [4] is 0. In addition, the “Plant response rating, Galium” value in test [5] is 40. The “Plant response rating, Kochia” value in test [6] is given as 20. In addition, the “Ryegrass, Italian plant response rating” value in test [7] worked out at 20. Besides, the “Plant response rating, Barnyardgrass” value in test [8] is 0. In test [9], the “Plant response rating, Foxtail, Giant” value stood at 30. Moreover, the “Ragweed plant response rating” value in test [10] is on record as 0. In addition, the “Barnyardgrass plant response rating” value in [11] is recorded as 20. Besides, the “Plant response rating, Ragweed” value in [12] amounted to 0. Further, the “Kochia plant response rating” value in test [13] turned out to be 60. Moreover, the “Pigweed plant response rating” value in test [14] was found to be 100. The “Plant response rating, Corn” value in test [15] was found to be 10. The “Plant response rating, Ryegrass, Italian” value in test [16] is 0.

For `CCOC(=O)c1cn(-c2ccccc2Oc2ncc(Cl)cn2)nn1` [Compound 302], the “Plant response rating, Pigweed” value in [1] came to 0. Also, the “Foxtail, Giant plant response rating” value in test [2] worked out at 0. In addition, the “Plant response rating, Blackgrass” value in [3] was 0. For the same compound, the “Plant response rating, Wheat” value in test [4] amounted to 0. In addition, in [5], the “Plant response rating, Galium” value is 0. The “Plant response rating, Kochia” value in test [6] amounted to 0. Besides, the “Ryegrass, Italian plant response rating” value in test [7] stood at 0. In test [8], the “Plant response rating, Barnyardgrass” value is listed as 0. Besides, in [9], the “Plant response rating, Foxtail, Giant” value was 0. In addition, the “Ragweed plant response rating” value in [10] worked out at 0. Besides, the “Barnyardgrass plant response rating” value in test [11] is reported as 0. The “Plant response rating, Ragweed” value in test [12] is 0. In test [13], the “Kochia plant response rating” value amounted to 0. For the same compound, in test [14], the “Pigweed plant response rating” value stood at 0. In addition, in test [15], the “Plant response rating, Corn” value was found to be 0. In test [16], the “Plant response rating, Ryegrass, Italian” value worked out at 0.
